Here are results for 20 compounds from ChEMBL document CHEMBL4303097 (2020).

Counter-ions that a name gives are not always drawn. Where only a bound is given, the exact number is not on record here.

Series [1] is described as follows: Cytotoxicity (CC50) determination in Vero E6 cells measured by fluorescence (OD590nm). In kind it is toxicity, cell-based. Conditions: chlorocebus sabaeus, Vero E6 cells (Vero C1008).
Series [2] in a line: Selectivity index for antiviral vs cytotoxic effect in Vero E6 cells (CC50/EC50). In kind it is toxicity, cell-based, Vero C1008. The following applies: monkey, read-out: Selectivity index.
Series [3] concerns SARS-CoV-2. The series can be described thus: Antiviral efficacy against SARS-CoV-2 (strain BavPat1) in Vero E6 cells assessed by inhibition of viral RNA replication measured by RT-PCR after 2 days. In kind it is functional, organism-based, Chlorocebus sabaeus. Conditions: Severe acute respiratory syndrome coronavirus 2, Vero C1008, 48 h.
Series [4] relates to SARS-CoV-2. Put plainly: Inhibition of cell viability relative to arbidol control (inhibition index > 1 indicates higher activity) measured by fluorescence (OD590nm) in Vero E6 cells infected with SARS-CoV-2 (strain BavPat1) at MOI 0.002 after 72hrs. In kind it is functional. Conditions: Chlorocebus sabaeus; Vero C1008.

As for `Clc1ccc(Cn2c(CN3CCCC3)nc3ccccc32)cc1`, in series [1], the CC50 was above 40 µM. Further, the selectivity ratio in series [2] was above 1.7. In the series on SARS-CoV-2 [3], the midpoint of the response, the EC50, lay at 23.9 µM and the 90% effect concentration (EC90) was found to be 38.2 µM.
Take `CC(C)CN(C[C@@H](O)[C@H](Cc1ccccc1)NC(=O)O[C@H]1CO[C@H]2OCC[C@H]21)S(=O)(=O)c1ccc(N)cc1`: the EC50 in the series with SARS-CoV-2 [3] is above 40 µM.
Consider `C=C[C@H]1CN2CC[C@H]1C[C@@H]2[C@@H](O)c1ccnc2ccc(OC)cc12`, for which the 50% cytotoxic concentration (CC50) in series [1] was above 40 µM. Further, the selectivity ratio in series [2] was above 7.8. In the series on SARS-CoV-2 [3], the half-maximal effective concentration (EC50) came out at 5.11 µM and the EC90 was above 40 µM.
In turn, `COC(c1ccccc1)(c1ccccc1)C(Oc1nc(C)cc(C)n1)C(=O)O` (configuration not stated) yielded a 50% effective concentration (EC50) in the series on SARS-CoV-2 [3] above 40 µM.
With `CCCCC[C@H](O)/C=C/[C@H]1[C@H](O)CC(=O)[C@@H]1CCCCCCC(=O)O` [ALPROSTADIL], in series [1], the CC50 was above 40 µM. In series [2], the selectivity ratio is above 7.4. In the series with SARS-CoV-2 [3], this compound had a 50% effective concentration (EC50) of 5.39 µM and a concentration for an effect of 90% (EC90) of 62.4 µM.
In the case of `CC[C@H]1OC(=O)[C@H](C)[C@@H](O[C@H]2C[C@@](C)(OC)[C@@H](O)[C@H](C)O2)[C@H](C)[C@@H](O[C@@H]2O[C@H](C)C[C@H](N(C)C)[C@H]2O)[C@](C)(O)C[C@@H](C)CN(C)[C@H](C)[C@@H](O)[C@]1(C)O` [AZITHROMYCIN], the cytotoxic concentration (CC50) in series [1] was above 40 µM. Besides, the selectivity ratio in series [2] was above 19. Moreover, the half-maximal effective concentration (EC50) in the series with SARS-CoV-2 [3] is 2.12 µM.
`C[C@@H]1CCO[C@H]2Cn3cc(C(=O)NCc4ccc(F)cc4F)c(=O)c(O)c3C(=O)N12` [DOLUTEGRAVIR] displayed a 50% cytotoxic concentration (CC50) in series [1] above 40 µM. The selectivity ratio in series [2] was above 1.8. For the same compound, in the series on SARS-CoV-2 [3], the half-maximal effective concentration (EC50) came out at 22 µM and the EC90 was 42.8 µM.
On to `CCN(CCO)CCCC(C)Nc1ccnc2cc(Cl)ccc12` (configuration not stated) [HYDROXYCHLOROQUINE SULFATE], for which the CC50 in series [1] was above 40 µM. Besides, the selectivity ratio in series [2] was above 10. This compound also displayed a half-maximal effective concentration (EC50) in the series with SARS-CoV-2 [3] of 4.17 µM.
On to `CC(C)(C)NC[C@H](O)c1ccc(O)c(CO)c1` [LEVALBUTEROL HYDROCHLORIDE], for which, in the series on SARS-CoV-2 [3], the concentration giving a half-maximal response (EC50) is above 40 µM.
On the same count and under the same terms, under `CCCc1nc(C(C)(C)O)c(C(=O)OCc2oc(=O)oc2C)n1Cc1ccc(-c2ccccc2-c2nnn[nH]2)cc1` [OLMESARTAN MEDOXOMIL] stands above 40 µM.
`COc1ccc2[nH]c([S+]([O-])Cc3ncc(C)c(OC)c3C)nc2c1` (configuration not stated) [OMEPRAZOLE]: in series [1], the CC50 was above 40 µM. In the series with SARS-CoV-2 [3], this compound registered a concentration giving a half-maximal response (EC50) of 17.1 µM.
The compound `OCCN1CCN(CCCN2c3ccccc3C=Cc3ccccc32)CC1` [OPIPRAMOL HYDROCHLORIDE] gave a CC50 in series [1] above 40 µM. The selectivity ratio in series [2] was above 7.9. The compound also returned an EC50 in the series with SARS-CoV-2 [3] of 5.05 µM.
In series [1], `C=CCOc1ccccc1OCC(O)CNC(C)C` (configuration not stated) [OXPRENOLOL HYDROCHLORIDE] registered a CC50 above 40 µM. Moreover, in series [2], the selectivity ratio is above 2. In the series on SARS-CoV-2 [3], this compound showed an EC50 of 20.2 µM and an EC90 above 40 µM.
`COc1ccccc1OCC(O)CN1CCN(CC(=O)Nc2c(C)cccc2C)CC1` (configuration not stated) [RANOLAZINE] showed an EC50 in the series on SARS-CoV-2 [3] above 40 µM.
For `COc1ncnc(NS(=O)(=O)c2ccc(N)cc2)c1OC` [SULFADOXINE], the half-maximal cytotoxic concentration (CC50) in series [1] is above 40 µM. Also, the selectivity ratio in series [2] is above 1.13. In the series on SARS-CoV-2 [3], the EC50 came to 35.4 µM and the EC90 came out at 45.1 µM.
`CCOC(=O)c1c(CSc2ccccc2)n(C)c2cc(Br)c(O)c(CN(C)C)c12` [UMIFENOVIR] had a CC50 in series [1] above 40 µM. The selectivity ratio in series [2] is above 3.7. In addition, in the series on SARS-CoV-2 [3], a half-maximal response (EC50) required 10.7 µM.
Regarding CYANOCOBALAMIN, the Inhibition index with SARS-CoV-2 [4] was found to be 0.0637.
In the series on SARS-CoV-2 [4], Gramicidin showed an Inhibition index of -0.249.
Compound NEOMYCIN SULFATE showed an Inhibition index with SARS-CoV-2 [4] of 0.0953.
With Tyloxapol, the Inhibition index in the series on SARS-CoV-2 [4] stood at 0.101.

The term CC50 denotes the concentration at which the toxic effect on the cells reaches its halfway point. A higher CC50 goes with better tolerance by the cells. Usually EC50 stands for the concentration giving half of the maximal effect. One may read the EC90 as the concentration needed for an effect of 90%. The low end stands for an effect from little substance, the high end for a need for much substance.
